The structures appear in SMILES notation. The source made the active and inactive calls. The rule behind the calls is not given here.

Results on 6 molecules are retold here after ChEMBL document CHEMBL3632563, “Synthesis of natural phaeosphaeride A derivatives and an in vitro evaluation of their anti-cancer potential” (Bioorg Med Chem Lett, 2015).

Test [1] concerns A549. The test is described as follows: Cytotoxicity against human A549 cells assessed as decrease in cell viability at 10 to 100 uM after 48 hrs by SRB assay. The class given is functional, cell-based. The note with it: for EC50: A549, 48 h. For orientation: Sulforhodamine B stains cellular protein and so reports cell mass.
Test [2] concerns A549. Put plainly: Cytotoxicity against human A549 cells assessed as decrease in cell viability at 10 to 100 uM after 48 hrs by MTT assay. The class given is functional, cell-based. A general note: Formazan colour is commonly taken as a measure of viable cells.
The subject of test [3] is A549. The test is described as follows: Cytotoxicity against human A549 cells assessed as decrease in cell viability at 25 to 100 uM after 48 hrs by SRB assay. The class given is functional, cell-based.
In test [4] the target is Signal transducer and activator of transcription 3 (Homo sapiens, UniProt P40763). Put plainly: Inhibition of STAT3 (unknown origin) assessed as reduction in STAT3-DNA binding.
Test [5] in a line: Growth inhibition of human U266 cells. Type of test: functional, cell-based. The note with it: U-266.

Sequence of Signal transducer and activator of transcription 3 (P40763 whole entry): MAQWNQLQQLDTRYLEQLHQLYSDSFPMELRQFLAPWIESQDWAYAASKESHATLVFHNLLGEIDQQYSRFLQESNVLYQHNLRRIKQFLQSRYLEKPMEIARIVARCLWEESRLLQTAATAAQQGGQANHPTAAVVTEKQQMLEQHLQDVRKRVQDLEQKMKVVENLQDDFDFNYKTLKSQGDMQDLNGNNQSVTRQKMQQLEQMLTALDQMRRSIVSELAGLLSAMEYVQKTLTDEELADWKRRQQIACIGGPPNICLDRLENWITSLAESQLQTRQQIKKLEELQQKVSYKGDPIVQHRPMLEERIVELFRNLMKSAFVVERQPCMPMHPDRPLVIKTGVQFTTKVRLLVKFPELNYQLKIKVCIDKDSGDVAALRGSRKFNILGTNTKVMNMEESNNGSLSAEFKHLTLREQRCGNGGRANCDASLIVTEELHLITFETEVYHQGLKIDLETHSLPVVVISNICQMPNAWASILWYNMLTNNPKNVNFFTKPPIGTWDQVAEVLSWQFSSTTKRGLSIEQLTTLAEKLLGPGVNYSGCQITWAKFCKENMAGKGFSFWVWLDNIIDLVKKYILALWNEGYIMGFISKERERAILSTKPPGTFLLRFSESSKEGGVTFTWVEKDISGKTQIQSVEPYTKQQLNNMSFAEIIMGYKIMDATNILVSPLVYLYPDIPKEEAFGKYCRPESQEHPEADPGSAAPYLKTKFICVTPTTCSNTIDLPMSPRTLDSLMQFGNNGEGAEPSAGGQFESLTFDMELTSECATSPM

Take `CCCCC[C@@H]1OC(/C(C)=N/OC)=C(C(=O)O)[C@H](O)[C@@]1(C)O`: the outcome in test [1] and in test [2] was inactive.

Turning to `C=C1C2=C(C(=O)N1OC)[C@H](OC(C)=O)[C@@](C)(O)[C@H](CCCCC)O2`, in test [1], the Activity result was “Dose-dependent effect” and the EC50 (usually the concentration that produces a half-maximal response) amounted to 49 µM. For the same molecule, in test [2], the outcome was Active. In test [3], the outcome was Active.

For `C=C1C2=C(C(=O)N1OC)[C@H](OC(=O)CCl)[C@@](C)(O)[C@H](CCCCC)O2`, the Activity result in test [1] is “Dose-dependent effect”. The EC50 in test [1] was determined as 33 µM. Further, the result in test [2] and in test [3] was Active.

Take `CCCCC[C@@H]1OC2=C(C(=O)NC2(COC)OC)[C@H](O)[C@@]1(C)O` (some centres undefined): the outcome in test [1] and in test [2] was inactive.

As to `CO[C@@]12[C@H](COC(N)=O)C3=C(C(=O)C(C)=C(N)C3=O)N1C[C@@H]1N[C@@H]12` [MITOMYCIN], the EC50 in test [1] was 5.2 µM.

For `C=C1C2=C(C(=O)N1OC)[C@H](O)[C@@](C)(O)[C@H](CCCCC)O2`, the IC50 – broadly, the concentration needed to halve the response being measured – in test [4] came out at 610 µM. Besides, in test [1], the Activity entry was “Dose-dependent effect”. In addition, the values for the EC50 in test [1] and in test [5] were 46 µM and 6.7 µM, respectively. The result in test [2] and in test [3] was Active.
